Data published in US11274106B2, “Topoisomerase inhibitors with antibacterial and anticancer activity” (THE BOARD OF TRUSTEES OF THE UNIVERSITY OF ILLINOIS, priority 2017, dated 2022).
≈ marks a conversion by molar mass, not a printed value.

Experiments:
BT-474 = assay: Antiproliferative SRB assay, BT-474; type: cell-based; details: FIG. 4b, 72 hour
From the text: Topoisomerase inhibitors such as DOX are used as single agent and in combination therapy to treat a wide-range of cancer types.

Top1 [1] = biological target: T1, Top1 (Homo sapiens, UniProt P11387); assay: Top1 degradation by Western blot, BT-474; type: cell-based; details: 50 μM for 2, 4, and 6 hours, then 30-minute drug-free media
T1 sequence (P11387 1-765): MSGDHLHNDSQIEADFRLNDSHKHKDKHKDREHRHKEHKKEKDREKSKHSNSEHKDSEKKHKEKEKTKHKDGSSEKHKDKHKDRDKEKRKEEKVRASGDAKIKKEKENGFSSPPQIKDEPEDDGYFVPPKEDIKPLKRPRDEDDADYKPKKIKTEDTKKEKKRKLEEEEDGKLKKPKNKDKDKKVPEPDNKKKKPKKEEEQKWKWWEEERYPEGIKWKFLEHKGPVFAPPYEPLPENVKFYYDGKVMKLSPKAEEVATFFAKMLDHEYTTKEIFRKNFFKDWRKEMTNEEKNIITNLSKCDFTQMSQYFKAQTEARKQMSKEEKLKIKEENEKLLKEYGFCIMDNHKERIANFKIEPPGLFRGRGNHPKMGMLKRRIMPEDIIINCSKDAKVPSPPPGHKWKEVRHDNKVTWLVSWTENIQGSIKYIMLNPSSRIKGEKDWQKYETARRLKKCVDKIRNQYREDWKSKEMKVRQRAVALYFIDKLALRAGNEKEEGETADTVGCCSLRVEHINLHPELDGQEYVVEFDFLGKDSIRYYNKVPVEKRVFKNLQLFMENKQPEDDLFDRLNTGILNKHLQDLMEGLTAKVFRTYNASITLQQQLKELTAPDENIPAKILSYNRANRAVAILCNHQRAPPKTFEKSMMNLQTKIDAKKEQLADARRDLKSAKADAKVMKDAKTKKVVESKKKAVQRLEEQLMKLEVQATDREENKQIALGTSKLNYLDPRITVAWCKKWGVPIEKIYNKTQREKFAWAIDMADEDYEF
Experimental: (§1) FIG. 4. Level of Top1-degradation predicts cell line sensitivity. (a) Cells treated with 25 μM of compound for indicated times followed by a 30 minute incubation with drug-free media. Cells were lysed with RIPA and Top1 levels assessed by Western Blot. (b) Degradation of Top1 results in a right-ward shift in the dose-response curve. Effect is most pronounced in Top1-poisons (Ph-6DNM-NH3, CPT) than Top1 catalytic inhibitor (6DNM-Pyr). Cell death measured by SRB assay after 72 hour of compound exposure (n≥3 biological replicates, error bars show SEM).
(§2) This difference in mechanism of action between Ph-6DNM-NH3 and 6DNM-Pyr may provide an explanation of the differences in cell line sensitivities between the different DNM derivatives. […] This downregulation serves as a resistance mechanism and the level of Top1 degradation is correlated with reduced sensitivity to CPT. To determine if a similar mechanism is responsible for the reduced sensitivity to Ph-6DNM-NH3 and its derivatives in certain cell lines, the effects of Ph-6DNM-NH3 and 6DNM-Pyr were compared to that of CPT in […] and BT-474, two cancer cell lines known to be deficient and proficient in Top1 degradation, respectively. Cells were treated with 50 μM Ph-6DNM-NH3, 6DNM-Pyr, or CPT for 2, 4, and 6 hours. Following a 30-minute incubation with drug-free media to allow for the reversal of any Top1cc formed, cells were lysed and Top1 concentrations assessed by Western blot (FIG. 4a).

[2] = test system: MDA-MB-231 triple negative breast cancer cells; assay: Antiproliferative SRB assay, MDA-MB-231; type: cell-based; details: SRB assay
Experimental: FIG. 1. […] Cell death measured by SRB assay after 72 hour of compound exposure (n≥3 biological replicates, error bars show SEM). IC50 values given as mean±SEM from ≥3 biological replicates.
To investigate the feasibility of developing a class of antitumor antibiotics based upon the DNM scaffold, the ability of the DNM to exert an antiproliferative effect against MDA-MB-231 breast cancer cells was evaluated.

Top1 [3] = biological target: T1, Top1; assay: Top1 degradation by Western blot, MDA-MB-231; type: cell-based; design: dose or concentration left out as unconfirmed; details: 4, and 6 hours, then 30-minute drug-free media
Experimental: as §1, §2

Top1cc = biological target: T2, Top1cc (Homo sapiens, UniProt P11387); assay: ICE assay for Top1-DNA adducts in H460 cells; type: cell-based
T2 construct: endogenous in cells; host or cells: H460
T2 sequence (P11387 2-765 limits assumed): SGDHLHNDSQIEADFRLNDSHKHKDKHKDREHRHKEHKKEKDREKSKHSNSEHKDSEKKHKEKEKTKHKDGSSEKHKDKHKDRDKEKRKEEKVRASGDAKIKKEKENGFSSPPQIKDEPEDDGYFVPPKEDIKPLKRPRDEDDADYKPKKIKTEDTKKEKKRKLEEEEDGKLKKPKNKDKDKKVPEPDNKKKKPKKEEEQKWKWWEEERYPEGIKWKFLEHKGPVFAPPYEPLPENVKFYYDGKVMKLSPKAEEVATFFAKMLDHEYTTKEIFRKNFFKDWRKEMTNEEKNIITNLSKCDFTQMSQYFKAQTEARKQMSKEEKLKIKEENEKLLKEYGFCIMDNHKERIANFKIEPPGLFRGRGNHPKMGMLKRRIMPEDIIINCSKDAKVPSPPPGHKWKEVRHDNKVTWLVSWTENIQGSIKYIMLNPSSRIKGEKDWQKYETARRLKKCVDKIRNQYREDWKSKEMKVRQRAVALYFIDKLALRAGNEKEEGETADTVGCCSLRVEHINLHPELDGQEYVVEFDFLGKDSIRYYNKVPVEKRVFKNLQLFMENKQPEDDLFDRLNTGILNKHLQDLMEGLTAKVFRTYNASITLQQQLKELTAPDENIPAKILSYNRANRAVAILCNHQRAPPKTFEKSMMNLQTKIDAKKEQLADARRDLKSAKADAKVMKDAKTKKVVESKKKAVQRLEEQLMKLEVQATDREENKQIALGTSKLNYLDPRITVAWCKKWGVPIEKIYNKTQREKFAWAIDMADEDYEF
From the text: (§3) FIG. 3. DNM derivatives are dual Top1/Top2 inhibitors with different modes of inhibition. (a) Inhibition of decatenating ability of Top2α with increasing concentrations of ETP, 6DNM-NH3, 6DNM-Pyr, and Ph-6DNM-NH3. K, kinetoplast DNA; OC, open circular; R, relaxed. (b) Inhibition of relaxing ability of Top1 with increasing concentrations of CPT, 6DNM-NH3, 6DNM-Pyr, and Ph-6DNM-NH3. R, relaxed; S, supercoiled. (c) Detection of Top2a-DNA using the ICE Assay. Genomic DNA ([…]) of H460 cells treated with drugs (50 μM, 30 min) was applied to nitrocellulose membrane and immunoblotted for Top2a. (d) Detection of Top1-DNA adducts using ICE Assay. Same procedure as (c) using 1 μg of DNA. (e) Inhibition of ETP-induced poisoning of Top2a. H460 cells treated with indicated concentrations of inhibitor for 30 min prior to treatment with ETP (50 μM). Detection of Top2α as in (c).
(§4) The in vivo complex of enzyme (ICE) assay can be used to distinguish poisons from catalytic inhibitors. The ICE assay consists of isolating the genomic DNA of cells treated with small molecules in a manner the preserves covalent DNA-protein complexes and applying it to nitrocellulose membranes. Because topoisomerase poisons stabilize the cleavage complexes, DNA-protein complexes can be detected by immunoblotting for specific topoisomerases, whereas catalytic inhibitors produce no such result. To determine if DNM derivatives are acting as poisons or catalytic inhibitors, H460 human lung cells were exposed to 50 μM of the Top2 poison ETP, Ph-6DNM-NH3, 6DNM-NH3, and 6DNM-Pyr and assessed for their ability to stabilize Top2cc. […] In a similar fashion, next investigated was the mode of Top1 inhibition using the ICE assay (FIG. 3b).

MRSA = assay: Antibacterial MIC, microbroth dilution, MRSA; type: cell-based, S. aureus; details: Staphylococcus aureus, MRSA; microbroth dilution
Experimental: (§5) To investigate this possibility, the antibacterial effects of the DNM derivatives was assessed against strains of E. coli, S. aureus, and MRSA using the microbroth dilution method (Table 2).

E. coli TopoIV = E. coli TopoIV (Escherichia coli, UniProt P0AFI2+P20083); assay: E. coli TopoIV decatenation assay; type: biochemical
E. coli TopoIV, sequence (P0AFI2 whole entry): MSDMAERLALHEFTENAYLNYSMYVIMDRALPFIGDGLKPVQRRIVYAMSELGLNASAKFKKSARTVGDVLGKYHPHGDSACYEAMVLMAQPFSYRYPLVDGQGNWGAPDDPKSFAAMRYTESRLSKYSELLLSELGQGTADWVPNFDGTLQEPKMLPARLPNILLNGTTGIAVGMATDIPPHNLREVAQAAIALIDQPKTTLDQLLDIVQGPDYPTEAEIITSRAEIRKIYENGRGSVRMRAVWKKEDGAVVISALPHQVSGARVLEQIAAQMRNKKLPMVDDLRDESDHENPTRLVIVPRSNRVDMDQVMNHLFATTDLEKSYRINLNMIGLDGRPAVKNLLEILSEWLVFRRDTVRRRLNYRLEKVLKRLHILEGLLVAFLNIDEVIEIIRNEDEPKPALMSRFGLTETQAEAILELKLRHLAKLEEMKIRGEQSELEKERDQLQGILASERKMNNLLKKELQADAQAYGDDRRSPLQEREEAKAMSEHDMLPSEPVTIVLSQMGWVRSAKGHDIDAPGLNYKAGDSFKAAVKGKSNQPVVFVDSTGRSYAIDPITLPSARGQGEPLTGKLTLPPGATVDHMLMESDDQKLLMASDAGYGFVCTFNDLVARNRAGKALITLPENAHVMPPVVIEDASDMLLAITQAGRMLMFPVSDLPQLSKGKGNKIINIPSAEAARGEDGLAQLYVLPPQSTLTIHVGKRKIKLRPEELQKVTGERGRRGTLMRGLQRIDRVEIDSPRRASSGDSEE
E. coli TopoIV, sequence (P20083 whole entry): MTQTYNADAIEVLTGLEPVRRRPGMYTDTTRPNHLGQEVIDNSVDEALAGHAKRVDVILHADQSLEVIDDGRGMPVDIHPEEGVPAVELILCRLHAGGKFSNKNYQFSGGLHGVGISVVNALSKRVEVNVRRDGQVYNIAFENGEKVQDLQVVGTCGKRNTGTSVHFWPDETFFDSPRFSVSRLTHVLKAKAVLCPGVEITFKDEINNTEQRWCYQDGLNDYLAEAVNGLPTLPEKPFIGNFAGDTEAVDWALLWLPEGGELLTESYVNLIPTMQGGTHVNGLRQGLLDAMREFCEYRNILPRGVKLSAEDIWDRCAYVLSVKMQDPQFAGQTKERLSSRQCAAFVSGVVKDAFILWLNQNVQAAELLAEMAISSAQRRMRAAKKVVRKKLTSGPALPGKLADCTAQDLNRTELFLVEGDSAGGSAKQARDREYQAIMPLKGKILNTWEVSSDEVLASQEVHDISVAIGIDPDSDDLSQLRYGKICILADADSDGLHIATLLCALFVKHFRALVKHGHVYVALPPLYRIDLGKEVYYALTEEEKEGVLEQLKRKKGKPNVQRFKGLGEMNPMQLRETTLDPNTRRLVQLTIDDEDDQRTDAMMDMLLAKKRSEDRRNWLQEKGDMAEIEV
From the text: (§6) FIG. 8. In vitro inhibitory activity of 6DNM-NH3, Ph-6DNM-NH3 against E. coli DNA gyrase and TopoIV.
(§7) DNM and its derivatives exert their antibacterial effects through inhibition of the DNA Gyrase.

E. coli = assay: Antibacterial MIC, microbroth dilution, E. coli; type: cell-based
Experimental: as §5

Top2cc = biological target: T3, Top2cc (Homo sapiens, UniProt P11388); assay: ICE assay for Top2α-DNA complexes in H460 cells; type: cell-based
T3 construct: endogenous in cells; host or cells: H460
T3 sequence (P11388 whole entry): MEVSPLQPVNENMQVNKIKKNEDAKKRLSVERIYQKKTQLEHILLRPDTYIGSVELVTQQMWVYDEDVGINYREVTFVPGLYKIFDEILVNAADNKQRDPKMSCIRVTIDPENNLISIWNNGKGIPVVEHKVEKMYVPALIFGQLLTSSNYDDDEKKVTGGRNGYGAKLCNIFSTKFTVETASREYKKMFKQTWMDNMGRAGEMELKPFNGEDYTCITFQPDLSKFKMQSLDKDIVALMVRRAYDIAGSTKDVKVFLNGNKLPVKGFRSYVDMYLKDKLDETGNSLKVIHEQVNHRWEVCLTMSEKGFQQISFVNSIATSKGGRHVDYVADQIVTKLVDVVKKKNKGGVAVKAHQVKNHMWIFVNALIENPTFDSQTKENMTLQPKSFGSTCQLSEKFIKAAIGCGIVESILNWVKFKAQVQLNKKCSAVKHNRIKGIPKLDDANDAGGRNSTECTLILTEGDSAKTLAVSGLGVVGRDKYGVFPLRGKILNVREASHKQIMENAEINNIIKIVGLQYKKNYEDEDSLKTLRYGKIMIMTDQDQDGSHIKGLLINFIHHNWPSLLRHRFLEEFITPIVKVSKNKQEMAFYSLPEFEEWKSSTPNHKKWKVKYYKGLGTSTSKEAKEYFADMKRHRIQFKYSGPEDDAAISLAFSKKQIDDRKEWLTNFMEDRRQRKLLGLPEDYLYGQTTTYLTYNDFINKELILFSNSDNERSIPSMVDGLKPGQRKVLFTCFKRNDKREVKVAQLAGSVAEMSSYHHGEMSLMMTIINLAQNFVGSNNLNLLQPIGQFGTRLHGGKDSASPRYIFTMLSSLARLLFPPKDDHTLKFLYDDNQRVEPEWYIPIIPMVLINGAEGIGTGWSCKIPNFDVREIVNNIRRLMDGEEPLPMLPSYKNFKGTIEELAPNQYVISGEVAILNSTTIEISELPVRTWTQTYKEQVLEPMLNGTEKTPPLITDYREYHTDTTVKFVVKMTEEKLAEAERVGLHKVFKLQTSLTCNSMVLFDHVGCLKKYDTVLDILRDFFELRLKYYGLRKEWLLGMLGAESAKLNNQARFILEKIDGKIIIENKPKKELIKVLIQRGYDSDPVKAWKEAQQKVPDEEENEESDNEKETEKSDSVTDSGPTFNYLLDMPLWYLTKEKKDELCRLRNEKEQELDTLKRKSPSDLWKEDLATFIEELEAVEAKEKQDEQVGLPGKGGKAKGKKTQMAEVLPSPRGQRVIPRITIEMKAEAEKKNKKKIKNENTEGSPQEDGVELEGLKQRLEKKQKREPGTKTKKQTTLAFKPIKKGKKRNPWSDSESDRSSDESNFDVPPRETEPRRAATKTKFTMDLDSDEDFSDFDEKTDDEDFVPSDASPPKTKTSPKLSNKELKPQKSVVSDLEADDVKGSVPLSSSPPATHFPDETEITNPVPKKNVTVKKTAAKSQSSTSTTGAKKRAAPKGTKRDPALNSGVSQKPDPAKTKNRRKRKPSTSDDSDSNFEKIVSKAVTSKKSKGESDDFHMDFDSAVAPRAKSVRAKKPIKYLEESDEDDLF
From the text: as §3, §4

Top1 [4] = biological target: T1, Top1; assay: Top1 DNA relaxation assay (pBR322); type: biochemical; details: supercoiled pBR322, FIG. 3b
From the text: as §3
To further investigate any mechanistic differences between these structurally related DNM analogues they were also evaluated against the other clinically-targeted mammalian topoisomerase, Top1, using a DNA relaxation assay in which purified Top1 relaxes supercoiled pBR322 and the two forms are separated by agarose gel electrophoresis.

Top2α = Top2α (Homo sapiens, UniProt P11388); assay: Top2α kDNA decatenation assay; type: biochemical; details: gel electrophoresis, FIG. 3a
Top2α, sequence (P11388 whole entry): as above
From the text: as §3
FIG. 9. Mechanism of action studies: Topoisomerases form transient covalent complexes with DNA to modify DNA topology. Ph6DNM-NH3 and 6DNM-NH3 inhibit bacterial DNA gyrase and human topoisomerase II in vitro.
The ability of Ph-6DNM-NH3, 6DNM-NH3, and 6DNM-Pyr to inhibit Top2α was assessed using a decatenation assay. In this assay, Top2α is incubated with kinetoplast DNA (kDNA), a large network of catenated minicircles and maxicircles of DNA. As Top2α decatenates the kDNA, it releases supercoiled and relaxed DNA minicircles that are easily separated from the kDNA by gel electrophoresis.

E. coli DNA Gyrase = E. coli DNA Gyrase (Escherichia coli, UniProt P0AES4+P0AES6); assay: E. coli DNA Gyrase supercoiling assay; type: biochemical
E. coli DNA Gyrase, sequence (P0AES4 whole entry, one chain of several): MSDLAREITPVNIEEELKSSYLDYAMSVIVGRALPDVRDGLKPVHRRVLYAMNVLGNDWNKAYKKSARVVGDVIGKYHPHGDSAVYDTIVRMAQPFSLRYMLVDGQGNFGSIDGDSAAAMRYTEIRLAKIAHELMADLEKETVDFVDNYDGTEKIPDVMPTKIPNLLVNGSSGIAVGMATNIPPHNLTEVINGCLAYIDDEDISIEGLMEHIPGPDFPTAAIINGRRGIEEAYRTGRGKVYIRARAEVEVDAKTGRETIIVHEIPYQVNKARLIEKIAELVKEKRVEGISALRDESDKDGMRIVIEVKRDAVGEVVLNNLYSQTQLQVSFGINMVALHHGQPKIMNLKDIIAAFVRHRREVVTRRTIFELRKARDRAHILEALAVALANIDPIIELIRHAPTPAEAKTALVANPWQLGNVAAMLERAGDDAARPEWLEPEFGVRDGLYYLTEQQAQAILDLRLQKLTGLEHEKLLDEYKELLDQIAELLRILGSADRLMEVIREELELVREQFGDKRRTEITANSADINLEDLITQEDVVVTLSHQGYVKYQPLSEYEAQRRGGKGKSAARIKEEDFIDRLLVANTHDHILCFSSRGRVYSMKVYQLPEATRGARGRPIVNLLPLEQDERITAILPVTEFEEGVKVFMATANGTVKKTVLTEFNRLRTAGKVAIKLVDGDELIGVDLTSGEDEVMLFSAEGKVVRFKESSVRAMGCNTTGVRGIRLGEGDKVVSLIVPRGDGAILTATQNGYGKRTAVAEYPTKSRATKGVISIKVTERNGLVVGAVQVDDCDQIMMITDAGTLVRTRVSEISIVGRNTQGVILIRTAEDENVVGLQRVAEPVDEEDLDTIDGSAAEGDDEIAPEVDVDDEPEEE
From the text: as §6, §7

S. aureus = assay: Antibacterial MIC, microbroth dilution, S. aureus; type: cell-based
Experimental: as §5

## CC[C@@]1(O)C(=O)OCc2c1cc1n(c2=O)Cc2cc3ccccc3nc2-1 [CPT, camptothecin, reference compound]
BT-474
  Effectiveness in BT-474 after Top1 degradation: nearly complete resistance
Top1 [1]
  Top1 levels by Western blot in BT-474: time-dependent decrease in the levels of Top1
[2]; FIG. 1, 72 hour
  Antiproliferative effect against MDA-MB-231 cells: sensitive
Top1 [3]
  Top1 levels by Western blot in MDA-MB-231: minimal differences in Top1 relative to untreated cells

## Cc1cc(=O)n(C)c2c3c4c(cc12)c(C)cc(=O)n4C(CN)CO3 (stereo not shown) [Compound 9]
Top1cc; H460 cells, 50 μM, 30 min
  Accumulation of Top1cc (ICE assay): neither 6DNM-NH3 nor 6DNM-Pyr, leads to the accumulation of Top1cc
Top1cc; in vitro and cell culture experiments taken together
  Mode of topoisomerase inhibition: dual Top1/Top2α catalytic inhibitors
MRSA
  MIC: 0.03 µg/mL (≈ 0.0922 µM)
E. coli TopoIV
  Inhibition of purified E. coli TopoIV: able to inhibit
E. coli
  E. coli MIC: 0.5 µg/mL
Top2cc; 50 μM
  Accumulation of Top2cc (ICE assay): only ETP treatment resulted in the accumulation of Top2cc
Top2cc; pre-treatment 30 minutes prior to ETP (50 μM)
  Effect on ETP-induced Top2cc: dose-dependent decrease in ETP-induced Top2cc
Top1 [4]
  Inhibition of Top1 relaxation: inhibit relaxation at submicromolar concentrations
[2]; 72 hour compound exposure, mean ± SEM, read-out: MDA-MB-231 IC50
  IC50: 220 ± 20 nM
Top2α
  Inhibition of decatenating function of Top2α: inhibit the decatenating function of Top2α in a dose-dependent manner
E. coli DNA Gyrase
  Inhibition of purified E. coli DNA Gyrase: able to inhibit
S. aureus
  S. aureus MIC: 0.5 µg/mL
